# Assay results from ChEMBL document CHEMBL1201862, “PubChem BioAssay data set” (2004).
#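 Cultured in 96-well plates, cells were exposed to test compound for 48 hours across five concentrations. GI50 is the concentration that inhibits growth by half.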 Activity calls are given as the source filed them. Rule as the data show it: active = GI50 up to about 1.1 µM and inactive = higher.
# Key:
# Experiment in all cases: growth of human tumour cells (NCI), 48 h
# PC-3 = system: PC-3
# LOX IMVI = system: LOX IMVI
# IGROV-1 = system: IGROV-1
# A549 = system: A549
# NCI-H460 = system: NCI-H460
# NCI-H23 = system: NCI-H23
# MCF7 = system: MCF7
# HT-29 = system: HT-29
# EKVX = system: EKVX
# SF-539 = system: SF-539
# COLO 205 = system: COLO 205
# Hs-578T = system: Hs-578T
# SNB-19 = system: SNB-19
# SK-MEL-28 = system: SK-MEL-28
# SK-MEL-5 = system: SK-MEL-5
# HOP-62 = system: HOP-62
# Malme-3M = system: Malme-3M
# SR = system: SR
# OVCAR-3 = system: OVCAR-3
# M14 = system: M14
# UACC-257 = system: UACC-257
# SK-MEL-2 = system: SK-MEL-2
# KM12 = system: KM12
# HOP-92 = system: HOP-92
# OVCAR-4 = system: OVCAR-4
# ACHN = system: ACHN
# MOLT-4 = system: MOLT-4
# BT-549 = system: BT-549
# UO-31 = system: UO-31
# NCI-H522 = system: NCI-H522
# U-251 = system: U-251
# TK-10 = system: TK-10
# T47D = system: T47D
# CAKI-1 = system: CAKI-1
# NCI-H226 = system: NCI-H226
# CCRF-CEM = system: CCRF-CEM
# SW-620 = system: SW-620
# 786-0 = system: 786-0
# MDA-MB-435 = system: MDA-MB-435
# SK-OV-3 = system: SK-OV-3
# UACC-62 = system: UACC-62
# MDA-N = system: MDA-N
# HCC 2998 = system: HCC 2998
# HCT-116 = system: HCT-116
# SF-295 = system: SF-295
# RXF 393 = system: RXF 393
# A498 = system: A498
# RPMI-8226 = system: RPMI-8226
# MDA-MB-231 = system: MDA-MB-231
# SF-268 = system: SF-268
# OVCAR-5 = system: OVCAR-5
# OVCAR-8 = system: OVCAR-8
# DU-145 = system: DU-145
# HCT-15 = system: HCT-15
# SNB-75 = system: SNB-75
# HL-60 = system: HL-60
# SN12C = system: SN12C
# NCI/ADR-RES = system: NCI/ADR-RES
# K562 = system: K562
smiles,measurement,setting,value
Cc1cc(C)n(CC(Cn2nc(C)cc2C)=C(/C(Cl)=C(/Cl)Nc2ccc([N+](=O)[O-])cc2)[N+](=O)[O-])n1,GI50,PC-3,3.42 µM (inactive)
same,GI50,LOX IMVI,2.3 µM (inactive)
same,GI50,IGROV-1,2.62 µM (inactive)
same,GI50,A549,3.43 µM (inactive)
same,GI50,NCI-H460,3.33 µM (inactive)
same,GI50,NCI-H23,2.43 µM (inactive)
same,GI50,MCF7,3.71 µM (inactive)
same,GI50,HT-29,3.28 µM (inactive)
same,GI50,EKVX,3.85 µM (inactive)
same,GI50,SF-539,3.52 µM (inactive)
same,GI50,COLO 205,2.67 µM (inactive)
same,GI50,Hs-578T,5.31 µM (inactive)
same,GI50,SNB-19,4.49 µM (inactive)
same,GI50,SK-MEL-28,7.06 µM (inactive)
same,GI50,SK-MEL-5,2.29 µM (inactive)
same,GI50,HOP-62,4.46 µM (inactive)
same,GI50,Malme-3M,3.61 µM (inactive)
same,GI50,SR,2.48 µM (inactive)
same,GI50,OVCAR-3,4 µM (inactive)
same,GI50,M14,4.37 µM (inactive)
same,GI50,UACC-257,3.4 µM (inactive)
same,GI50,SK-MEL-2,3.05 µM (inactive)
same,GI50,KM12,1.81 µM (inactive)
same,GI50,HOP-92,2.47 µM (inactive)
same,GI50,OVCAR-4,1.02 µM (active)
same,GI50,ACHN,3.25 µM (inactive)
same,GI50,MOLT-4,1.79 µM (inactive)
same,GI50,BT-549,3.33 µM (inactive)
same,GI50,UO-31,2.74 µM (inactive)
same,GI50,NCI-H522,2.09 µM (inactive)
same,GI50,U-251,3.53 µM (inactive)
same,GI50,TK-10,3.78 µM (inactive)
same,GI50,T47D,3.33 µM (inactive)
same,GI50,CAKI-1,1.81 µM (inactive)
same,GI50,NCI-H226,10.2 µM (inactive)
same,GI50,CCRF-CEM,0.558 µM (active)
same,GI50,SW-620,2.42 µM (inactive)
same,GI50,786-0,5.06 µM (inactive)
same,GI50,MDA-MB-435,1.84 µM (inactive)
same,GI50,SK-OV-3,3.37 µM (inactive)
same,GI50,UACC-62,3.9 µM (inactive)
same,GI50,MDA-N,3.74 µM (inactive)
same,GI50,HCC 2998,3.52 µM (inactive)
same,GI50,HCT-116,3.7 µM (inactive)
same,GI50,SF-295,5.87 µM (inactive)
same,GI50,RXF 393,3.59 µM (inactive)
same,GI50,A498,3.37 µM (inactive)
same,GI50,RPMI-8226,1.93 µM (inactive)
same,GI50,MDA-MB-231,6.05 µM (inactive)
same,GI50,SF-268,5.01 µM (inactive)
same,GI50,OVCAR-5,7.78 µM (inactive)
same,GI50,OVCAR-8,3.35 µM (inactive)
same,GI50,DU-145,4.03 µM (inactive)
same,GI50,HCT-15,4.73 µM
same,GI50,SNB-75,4.67 µM (inactive)
same,GI50,HL-60,1.54 µM (inactive)
same,GI50,SN12C,3.82 µM (inactive)
same,GI50,NCI/ADR-RES,8.07 µM (inactive)
same,GI50,K562,1.65 µM (inactive)
C[C@]12CCC3C4=C(CCC3C1CCC2=O)C(=O)[C@H]1O[C@H]1C4=O (stereo partly drawn),GI50,PC-3,4.18 µM (inactive)
same,GI50,LOX IMVI,1.89 µM (inactive)
same,GI50,IGROV-1,2.24 µM (inactive)
same,GI50,A549,11 µM (inactive)
same,GI50,NCI-H460,7.46 µM (inactive)
same,GI50,NCI-H23,2.77 µM (inactive)
same,GI50,MCF7,2.18 µM (inactive)
same,GI50,HT-29,1.36 µM (inactive)
same,GI50,EKVX,14.3 µM (inactive)
same,GI50,SF-539,1.92 µM (inactive)
same,GI50,COLO 205,4.33 µM (inactive)
same,GI50,Hs-578T,9.51 µM (inactive)
same,GI50,SNB-19,15.6 µM (inactive)
same,GI50,SK-MEL-28,12.3 µM (inactive)
same,GI50,SK-MEL-5,10 µM (inactive)
same,GI50,HOP-62,3.27 µM (inactive)
same,GI50,Malme-3M,21.6 µM (inactive)
same,GI50,SR,0.538 µM (active)
same,GI50,OVCAR-3,1.46 µM (inactive)
same,GI50,M14,4.05 µM (inactive)
same,GI50,UACC-257,17.4 µM (inactive)
same,GI50,SK-MEL-2,12.2 µM (inactive)
same,GI50,KM12,5.43 µM (inactive)
same,GI50,HOP-92,7.67 µM (inactive)
same,GI50,OVCAR-4,3.05 µM (inactive)
same,GI50,ACHN,2.57 µM (inactive)
same,GI50,MOLT-4,0.785 µM (active)
same,GI50,BT-549,1.98 µM (inactive)
same,GI50,UO-31,2.31 µM (inactive)
same,GI50,NCI-H522,1.84 µM (inactive)
same,GI50,U-251,2.75 µM (inactive)
same,GI50,TK-10,3.35 µM (inactive)
same,GI50,T47D,0.61 µM (active)
same,GI50,CAKI-1,0.275 µM (active)
same,GI50,NCI-H226,2.18 µM (inactive)
same,GI50,CCRF-CEM,1.12 µM (inactive)
same,GI50,SW-620,1.78 µM (inactive)
same,GI50,786-0,1.83 µM (inactive)
same,GI50,MDA-MB-435,11.8 µM (inactive)
same,GI50,SK-OV-3,13.9 µM (inactive)
same,GI50,UACC-62,2.94 µM (inactive)
same,GI50,MDA-N,7.18 µM (inactive)
same,GI50,HCC 2998,1.9 µM (inactive)
same,GI50,HCT-116,0.453 µM (active)
same,GI50,SF-295,15.3 µM (inactive)
same,GI50,RXF 393,1.6 µM (inactive)
same,GI50,A498,17.1 µM (inactive)
same,GI50,RPMI-8226,0.641 µM (active)
same,GI50,MDA-MB-231,1.8 µM (inactive)
same,GI50,SF-268,2.31 µM (inactive)
same,GI50,OVCAR-5,3.77 µM (inactive)
same,GI50,OVCAR-8,2.09 µM (inactive)
same,GI50,DU-145,3.12 µM (inactive)
same,GI50,HCT-15,1.36 µM
same,GI50,SNB-75,3.23 µM (inactive)
same,GI50,HL-60,2.67 µM (inactive)
same,GI50,SN12C,2.64 µM (inactive)
same,GI50,NCI/ADR-RES,4.02 µM (inactive)
same,GI50,K562,1.29 µM (inactive)
